Assay results reported in publication PMC12811996, “Exploration and Characterization of the Antimalarial Activity of Pyrimidine‐2,4‐Diamines for which Resistance is Mediated by the ABCI3 Transporter” (Chemmedchem, 2025).
Values after ≈ are worked out from the molar mass of the structure shown. Like-named read-outs stand apart in the source and are kept apart here.

What was measured:
in vitro = in vitro ADME; details: for microsomal CLint: human, microsomes, human liver microsomes; for hepatocyte CLint: rat hepatocytes
Procedure: (§1) The aqueous solubility and in vitro metabolic stability of selected analogs were assessed to determine if they had favorable parameters (Table 9 ).These analogs were selected based on their potency and the modifications that were incorporated, which led to compounds 55 and 56. […] The high lipophilicity of analogs 1, 11, and 16 was not favorable for metabolic stability.
(§2) This was performed as previously described.^[ [14] ^, [16] ^]

Albumax = Albumax (Bos taurus, UniProt P02769); assay: in vitro; assay type: in vitro ADME; details: for fraction unbound: bovine, isolated protein, read-out: Albumax binding % bound (converted)
Chain of Albumax (P02769 25-607): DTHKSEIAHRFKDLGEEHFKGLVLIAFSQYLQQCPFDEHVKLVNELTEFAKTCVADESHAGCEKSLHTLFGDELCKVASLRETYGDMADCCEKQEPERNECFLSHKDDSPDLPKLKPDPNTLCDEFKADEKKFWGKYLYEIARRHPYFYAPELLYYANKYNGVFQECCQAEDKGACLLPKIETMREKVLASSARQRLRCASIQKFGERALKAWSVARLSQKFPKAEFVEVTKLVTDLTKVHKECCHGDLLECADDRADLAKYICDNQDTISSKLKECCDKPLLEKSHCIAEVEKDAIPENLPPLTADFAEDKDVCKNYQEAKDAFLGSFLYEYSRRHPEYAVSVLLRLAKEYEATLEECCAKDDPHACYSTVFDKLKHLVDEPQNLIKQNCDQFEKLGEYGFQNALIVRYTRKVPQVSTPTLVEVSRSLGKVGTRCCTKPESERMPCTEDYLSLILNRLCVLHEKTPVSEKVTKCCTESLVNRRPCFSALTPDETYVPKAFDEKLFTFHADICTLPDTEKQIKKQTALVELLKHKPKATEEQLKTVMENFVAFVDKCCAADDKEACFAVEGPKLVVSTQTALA

physchem [1] = assay type: physicochemical; details: shake-flask method; for logD: read-out: eLogD
Procedure: as §2

physchem [2] = assay type: physicochemical; details: kinetic in PBS, pH 7.4
Procedure: as §1, §2

[3] = system: P. falciparum 3D7 parasites; assay: P. falciparum 3D7 asexual stage parasite LDH assay, 72 h; assay type: cell-based, Plasmodium falciparum; details: for fold reduction in antiplasmodial activity compared to W482 (1): ratio of 3D7 EC50 values; for EC50: Plasmodium falciparum, 3D7, 72 h, P. falciparum 3D7, LDH activity, 72 h exposure, means and SDs, 3 or more experiments, read-out: Pf parasite EC50 (SD)
Procedure: To establish the SAR, the antiparasitic activity of the analogs was determined using an assay that measures the lactate dehydrogenase (LDH) activity of asexual P. falciparum 3D7 parasites after 72 h of compound treatment. Mammalian cytotoxicity was monitored using an assay that measures the growth of HepG2 cells using Cell Titer‐Glo after 48 h of compound treatment.
This was performed as previously described, whereby lactate dehydrogenase (LDH) was used as a metabolic marker for parasite growth after a 72‐h incubation period.^[ [14] ^, [30] ^]

PfABCI3-HAreg parasites = assay: Parasite proliferation assay with PfABCI3-HAreg parasites (SYBR Safe, 72 h); assay type: cell-based, Plasmodium falciparum; details: mean ± SEM, n = 4; for IC50: Plasmodium falciparum, 72 h
Procedure: Glucosamine (GlcN) (5 mM) was used to reduce the level of pfabci3‐ha. Chloroquine and MMV020746 were used as negative and positive controls, respectively.
Figure 4 Sensitivity of PfABCI3‐HAreg parasites to growth inhibition by chloroquine (a), MMV020746 (b), and W482 (1) (c). Data for parasites in which pfabci3‐ha mRNA was reduced (+ GlcN) are shown in red. GlcN (5 mM) was added to the parasites 48 h prior to the assay and maintained throughout the 72 h assay. The data for parasites expressing a normal level of PfABCI3‐HA (‐GlcN) are shown in black. The data in all panels are from four independent experiments performed on different days. […] Parasites that were treated with or without GlcN (5 mM) were tested concurrently in each assay. TEXT PRINTED IN THE PICTURE: chloroquine: IC50 ± SEM (nM) - GlcN: 12.6 ± 1.1; IC50 ± SEM (nM) + GlcN: 11.9 ± 1.5 | MMV020746: IC50 ± SEM (nM) - GlcN: 104 ± 13; IC50 ± SEM (nM) + GlcN: 32.9 ± 3.9 | W482 (1): IC50 ± SEM (nM) - GlcN: 312 ± 28; IC50 ± SEM (nM) + GlcN: 153 ± 12
Parasite proliferation assays were performed with PfABCI3‐HAreg parasites^[ [19] ^] according to a previously described method, with the fluorescent nucleic acid intercalating dye SYBR Safe used to measure parasite viability.^[ [32] ^, [33] ^] The assays were commenced with cultures consisting of predominantly ring‐stage parasites with a starting hematocrit of 1% and parasitemia of 1%. […] It was shown previously that there is a reduction in pfabci3‐ha mRNA in PfABCI3‐HAreg exposed to 5 mM GlcN and a decrease in parasite viability over time.^[ [19] ^] The level of knockdown of the protein is not known.

[4] = read-out: Aqueous solubility pH 7.4
[5] = aqueous buffer, kinetic from dmso stock

Compound | EC50 [3] [µM] | also measured
3‐Cyclohexyl‐N‐(4‐((4‐(dimethylamino)quinazolin‐2‐yl)amino)phenyl)propenamide [Compound 16] |  | Human liver microsomes CLint (in vitro): 166 µL/min/mg; Rat hepatocytes CLint (in vitro): >92 µL/min/10^6 cells; Albumax binding % bound (Albumax): 96.6%; eLogD (physchem [1]): 4.6–5.0; solubility (physchem [2]; [4]): 2.5 µM
3‐Cyclohexyl‐N‐(4‐((4‐methyl‐6‐(4‐methylpiperazin‐1‐yl)pyrimidin‐2‐yl)amino)phenyl)propenamide [Compound 11] |  | Rat hepatocytes CLint (in vitro): >92 µL/min/10^6 cells; Albumax binding % bound (Albumax): 99.9%; eLogD (physchem [1]): 4.6–5.0; solubility (physchem [2]; [4]): 2.6 µM
3‐Cyclohexyl‐N‐(4‐((4‐methyl‐6‐morpholinopyrimidin‐2‐yl)amino)phenyl)propenamide [Compound 9] |  | fold reduction in antiplasmodial activity compared to W482 (1) [3]: 4 fold
3‐Cyclohexyl‐N‐(6‐((4‐(dimethylamino)‐6‐methylpyrimidin‐2‐yl)amino)pyridin‐3‐yl)propenamide [Compound 25] |  | fold reduction in antiplasmodial activity compared to W482 (1) [3]: 8 fold
Cc1cc(N(C)Cc2ccccc2)nc(Nc2ccc(NC(=O)CCC3CCCCC3)cc2)n1 [Compound 6, N‐(4‐((4‐(Benzyl(methyl)amino)‐6‐methylpyrimidin‐2‐yl)amino)phenyl)‐3‐cyclohexylpropanamide] | 0.6 | 
Cc1cc(Nc2ccc(NC(=O)CCC3CCCCC3)cc2)nc(N(C)C)c1 [Compound 19, 3‐Cyclohexyl‐N‐(4‐((6‐(dimethylamino)‐4‐methylpyridin‐2‐yl)amino)phenyl)propanamide] | 0.61 | 
Cc1cc(N(C)C)cc(Nc2ccc(NC(=O)CCC3CCCCC3)cc2)n1 [Compound 20, 3‐Cyclohexyl‐N‐(4‐((4‐(dimethylamino)‐6‐methylpyridin‐2‐yl)amino)phenyl)propanamide] | 0.88 | 
CN(C)c1nc(Nc2ccc(NC(=O)CCC3CCCCC3)cc2)cc2ccccc12 [Compound 21, 3‐Cyclohexyl‐N‐(4‐((1‐(dimethylamino)isoquinolin‐3‐yl)amino)phenyl)propanamide] | > 10 | 
Cc1cc(N(C)C)nc(Nc2ccc(NC(=O)c3cccs3)cc2)n1 [Compound 27] | 1.44 | 
Cc1cc(N(C)C)nc(Nc2ccc(NC(=O)c3ccco3)cc2)n1 [Compound 28] | 3.9 | 
Cc1cc(N(C)C)nc(Nc2ccc(NC(=O)c3ccc4ccccc4c3)cc2)n1 [Compound 29] | 0.36 | 
Cc1cc(N(C)C)nc(Nc2ccc(NC(=O)C(C)C)cc2)n1 [Compound 30] | 3.76 | 
Cc1cc(N(C)C)nc(Nc2ccc(NC(=O)C(C)(C)C)cc2)n1 [Compound 31] | 3.36 | 
Cc1cc(N(C)C)nc(Nc2ccc(NC(=O)CC(C)C)cc2)n1 [Compound 32] | 1.63 | 
Cc1cc(N(C)C)nc(Nc2ccc(NC(=O)C3CCCCC3)cc2)n1 [Compound 33] | 0.93 | 
Cc1cc(N(C)C)nc(Nc2ccc(NC(=O)CCC3CCCC3)cc2)n1 [Compound 34] | 1 | fold reduction in antiplasmodial activity compared to W482 (1) [3]: 2 fold
Cc1cc(N(C)C)nc(Nc2ccc(NC(=O)c3ccccc3Cl)cc2)n1 [Compound 35] | 2.12 | 
Cc1cc(N(C)C)nc(Nc2ccc(NC(=O)c3ccccc3Br)cc2)n1 [Compound 36] | 1.85 | 
Cc1cc(N(C)C)nc(Nc2ccc(NC(=O)c3ccccc3C(F)(F)F)cc2)n1 [Compound 37] | 0.85 | fold reduction in antiplasmodial activity compared to W482 (1) [3]: 2 fold
Cc1cc(N(C)C)nc(Nc2ccc(NC(=O)c3cccc(F)c3)cc2)n1 [Compound 38] | 0.78 | fold reduction in antiplasmodial activity compared to W482 (1) [3]: 2 fold

Compound | EC50 [3] [µM] | also measured
Cc1cc(N(C)C)nc(Nc2ccc(NC(=O)c3cccc(Br)c3)cc2)n1 [Compound 39] | 0.45 | 
Cc1cccc(C(=O)Nc2ccc(Nc3nc(C)cc(N(C)C)n3)cc2)c1 [Compound 40] | 1.08 | fold reduction in antiplasmodial activity compared to W482 (1) [3]: 2 fold
Cc1cc(C)cc(C(=O)Nc2ccc(Nc3nc(C)cc(N(C)C)n3)cc2)c1 [Compound 41] | 0.59 | 
Cc1cc(N(C)C)nc(Nc2ccc(NC(=O)c3ccc(C)c(C)c3)cc2)n1 [Compound 42] | 0.66 | 
COc1cc(OC)cc(C(=O)Nc2ccc(Nc3nc(C)cc(N(C)C)n3)cc2)c1 [Compound 43] | 0.64 | 
COc1ccc(Cl)cc1C(=O)Nc1ccc(Nc2nc(C)cc(N(C)C)n2)cc1 [Compound 44] | 0.49 | 
Cc1cc(N(C)C)nc(Nc2ccc(NC(=O)Nc3ccccc3F)cc2)n1 [Compound 45] | 3.42 | 
Cc1cc(N(C)C)nc(Nc2ccc(NC(=O)Nc3ccccc3Cl)cc2)n1 [Compound 46] | > 10 | 
Cc1cc(N(C)C)nc(Nc2ccc(NC(=O)Nc3ccccc3C)cc2)n1 [Compound 47] | 0.41 | 
COc1ccccc1NC(=O)Nc1ccc(Nc2nc(C)cc(N(C)C)n2)cc1 [Compound 48] | 0.38 | 
Cc1cc(N(C)C)nc(Nc2ccc(NC(=O)Nc3cccc(Cl)c3)cc2)n1 [Compound 49] | 0.24 | 
Cc1cccc(NC(=O)Nc2ccc(Nc3nc(C)cc(N(C)C)n3)cc2)c1 [Compound 50] | 0.24 | 
Cc1cc(N(C)C)nc(Nc2ccc(NC(=O)Nc3ccc(F)cc3)cc2)n1 [Compound 51] | 0.3 | microsomal CLint (in vitro): 26 µL/min/mg; hepatocyte CLint (in vitro): 32 µL/min/1e6 cells; fraction unbound (Albumax): 0.016; logD (physchem [1]): 3; solubility (physchem [2]; [5]): 3.7 µM (≈ 1.41 µg/mL)
Cc1cc(N(C)C)nc(Nc2ccc(NC(=O)Nc3ccc(Cl)cc3)cc2)n1 [Compound 52] | 0.34 | 
Cc1ccc(NC(=O)Nc2ccc(Nc3nc(C)cc(N(C)C)n3)cc2)cc1 [Compound 53] | 0.44 | 
COc1ccc(NC(=O)Nc2ccc(Nc3nc(C)cc(N(C)C)n3)cc2)cc1 [Compound 54] | 0.4 | 
O=C(CCC1CCCCC1)Nc1ccc(Nc2nc(N3CCNCC3)c3ccccc3n2)cc1 [Compound 55, 3‐Cyclohexyl‐N‐(4‐((4‐(piperazin‐1‐yl)quinazolin‐2‐yl)amino)phenyl)propanamide] | 0.23 | Human liver microsomes CLint (in vitro): 117 µL/min/mg; microsomal CLint (in vitro): > 117 µL/min/mg; hepatocyte CLint (in vitro): 27 µL/min/1e6 cells; fraction unbound (Albumax): 0.002; logD (physchem [1]): 3.2; solubility (physchem [2]; [5]): 2.5 µM (≈ 1.15 µg/mL)
O=C(Nc1ccc(F)cc1)Nc1ccc(Nc2nc(N3CCNCC3)c3ccccc3n2)cc1 [Compound 56, 1‐(4‐Fluorophenyl)‐3‐(4‐((4‐(piperazin‐1‐yl)quinazolin‐2‐yl)amino)phenyl)urea] | 0.18 | hepatocyte CLint (in vitro): 21 µL/min/1e6 cells; fraction unbound (Albumax): 0.001; logD (physchem [1]): 2.2; solubility (physchem [2]; [5]): 9.6 µM (≈ 4.39 µg/mL)
CCN(CC)CCCC(C)Nc1ccnc2cc(Cl)ccc12 (stereo not shown) [chloroquine, reference compound] |  | IC50 (PfABCI3-HAreg parasites; PfABCI3-HAreg parasites expressing normal level of PfABCI3-HA (-GlcN)): 0.0126 ± 0.0011 µM; IC50 (PfABCI3-HAreg parasites; PfABCI3-HAreg parasites with reduced pfabci3-ha mRNA (+ 5 mM GlcN)): 0.0119 ± 0.0015 µM; fold lower IC50 for +GlcN parasites than -GlcN parasites (PfABCI3-HAreg parasites): equally potent
